Here are results for 1 compound from patent US20250129033A1, “METAP2 INHIBITORS AND USES THEREOF” (Yissum Research Development Company of the Hebrew …, priority 2022, published 2025).

The subject of one assay is A375 cells. Put plainly: A375 proliferation assay (MTT). The assay is classed as cell-based, human. The note with it: 1-100 μM, 72 h, dose-dependent. As to the method: Human Umbilical Vein Endothelial Cells (HUVECs) or human melanoma cell line (A375) were used to validate the ability of the compound to suppress endothelial cell proliferation. Each 1500 A375 cells/well or 2000 HUVEC cells/well were seeded in a 96 wells plate and allowed to adhere to the plate for few hours. Compounds were then added to the cells at concentration range of 0.05-10 μM (<0.1% DMSO). Cells were then incubated for additional 72 hours and MTT was done (2 to 3 h at 37° C.). The dye was solubilized with DMSO and the absorbance was determined at 570 nm.
A375 were seeded (2000 cells/well) exposed to TNP-470 and to arrange concentrations of AD-3281 (1-100 μM) cells were incubated for 72 h at 37° C., After incubation, MTT (Sigma Aldrich, St. Louis City, MO, USA) was added (0.5 mg/mL) into each well for viability detection and incubated at 37° C. and 5% CO2 for 40 minutes. The absorbance was measured at 540 nm using a plate reader (Wallac 1420 VICTOR plate reader, Perkin-Elmer Life Sciences, USA). The proliferation of HUVECs was measured under the same conditions. HUVECs were seeded (3000 cells/well) in 96-well plates […]

The target of assay [1] is T1, MetAp2 in MDA-MB-231 cancer cells (Homo sapiens, UniProt P50579).
T1 construct: host or cells: MDA-MB-231 cell homogenate (RIPA supernatant, 5 µg protein)
The assay is described as follows: MetAp2 enzymatic activity in MDA-MB-231 cell homogenate. The assay is classed as biochemical. The conditions noted are these: 2.5 μM. As to the method: A375 and MDA-MB-231 were sub cultivated using trypsin, then centrifuge and counted. To obtain a homogenate containing an equivalent cell number, cells were resuspended in an appropriate volume of cold RIPA containing a protease inhibitor cocktail. Insoluble cellular components were removed by centrifugation at 15,000 RPM for 10 min at 4° C. The protein content of the supernatant was determined according to the Bradford protein assay using BSA as the standard.
The enzymatic assay was performed using 5 μg protein per sample as described previously. […] An increase of fluorescence, due to substrate degradation during the enzymatic assay, was measured every 20 seconds for 1 h and 30 min at 37° C. using a plate reader (Wallac 1420 VICTOR plate reader, Perkin-Elmer Life Sciences, USA). […]
A375 and MDA-MB-231 were sub-cultivated using trypsin, then centrifuged and counted. […] The protein content of the supernatant was determined according to the Bradford protein assay using BSA as the standard. […] An increase of fluorescence, due to substrate degradation during the enzymatic assay, was measured every 20 seconds for 1 h and 30 min at 37° C. using a plate reader (Wallac 1420 VICTOR plate reader, Perkin-Elmer Life Sciences, USA). […]

Assay [2] deals with Choroidal Neovascularization (CNV). Put plainly: Laser-induced CNV in mice. The assay is classed as in vivo, C57Bl/6J mice. The note with it: 12 μg per eye, intravitreal, 7 days. An excerpt: Laser-induced CNV was generated by a previously described technique with some modifications. C57Bl/6J mice (6-8 weeks) were anesthetized by intraperitoneal injections of a mixture of 85% ketamine and 15% xylazine. A mixture of 0.5% tropicamide and 0.5% phenylephrine hydrochloride was applied to both eyes to dilate the pupils. Lesions were induced by a diode pumped solid state laser (0.1 s; spot size, 100 μm; power 120 mW) around the optic nerve through a slit lamp delivery system using a Nidek while a hand-held cover slide was used as a contact lens. Only lesions in which a subretinal bubble or focal serous detachment of the retina developed were used for the experiments. For this purpose, 4 burns were performed per eye while leaving a space around the optic disc. Intravitreal injections of the treatments were performed using a PLI-100 Pico-Injector following the laser procedure. After 7 days mice were euthanized and their eyes were removed and fixed in 4% paraformaldehyde for 60 min. The cornea and lens were removed, and the entire retina was carefully dissected from the eyecup Choroid.
Blood vessels were labeled using a 1:200 dilution of isolectin IB4 conjugated with Alexa Fluor 488 or lectin-FITC. The eyecup was flat-mounted in an aqua-mount with the sclera facing down and the choroid facing up. […] The CNV area (presented in μm2) in choroidal flat mount was evaluated using ImageJ software […]

The structures appear in SMILES notation.

T1 sequence (P50579 whole entry): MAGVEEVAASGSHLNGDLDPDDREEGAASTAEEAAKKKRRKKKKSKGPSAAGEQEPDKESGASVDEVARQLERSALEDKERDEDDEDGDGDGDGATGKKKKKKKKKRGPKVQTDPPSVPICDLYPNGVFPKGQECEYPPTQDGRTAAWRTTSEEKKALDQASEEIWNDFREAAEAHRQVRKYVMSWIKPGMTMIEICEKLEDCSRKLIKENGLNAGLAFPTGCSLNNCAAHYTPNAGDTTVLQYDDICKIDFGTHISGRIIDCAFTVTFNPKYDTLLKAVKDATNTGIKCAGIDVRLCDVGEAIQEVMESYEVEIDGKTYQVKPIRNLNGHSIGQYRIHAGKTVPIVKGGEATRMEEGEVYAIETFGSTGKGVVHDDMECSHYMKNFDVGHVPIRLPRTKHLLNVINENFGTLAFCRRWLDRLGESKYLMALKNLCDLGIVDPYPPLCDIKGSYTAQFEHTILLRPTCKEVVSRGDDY

As to `COC1C(OC(=O)CC23CC4CC(CC(C4)C2)C3)CCC2(CO2)C1C1(C)OC1CC=C(C)C` (stereo not shown) [AD-3281, Fumagillol-1-adamantylacetate], in the assay with A375 cells, the “reduction in A375 cancer cell proliferation” value is listed as 37-63%. The “inhibition of MetAp2 activity in MDA-MB-231 after 10 minutes” value in assay [1] (10 minutes of exposure) is recorded as “Significant inhibition”. Besides, the “reduction of MetAp2 enzymatic activity in MDA-MB-231” value in assay [1] (over the course of 1 h) came to 80%. The “effect on mouse laser induced CNV” value in assay [2] came out at 46%.
